In patent publication US20150087627A1, “COMBINATION OF KINASE INHIBITORS AND USES THEREOF” (Intellikine LLC, priority 2011, published 2015):

Tests used:
[1] = system: HCC70 human breast cancer xenografts; experiment: Antitumor activity, multiple dosing schedules, HCC70 xenografts (Example 43); type: in vivo, Mus musculus; details: Day 35
Experimental: Compound A was prepared in 5% NMP+95% PEG400 every 5-7 days and stored at approximately 25° C., shielded from light. The control article used in this study was 5% NMP+95% PEG400. Compounds were completely dissolved in NMP by sonication followed by the addition of the appropriate volume of PEG400. The solution was vortexed and sonicated again to ensure complete mixing.
Low passage HCC70 cells (ATCC) were grown in RPMI (Life Technologies) supplemented with 10% Fetal Bovine Serum (FBS) (PAA Laboratories Pty Ltd) and 1× penicillin-streptomycin (Life Technologies) and supplied at a concentration of 5.0×10^7 cells/mL in serum-free RPMI and 50% Matrigel (BD Biosciences). HCC70 cells (5.0×10^6 cells/animal, 0.1-mL injection volume) were implanted subcutaneously (SC) into flank of female athymic nude mice. The animals used in this study are described in the following table.
Five-week old female athymic nude mice were inoculated SC in flank (cell suspension in serum free RPMI and 50% Matrigel) with 5.0×10^6 HCC70 cells. Tumor growth was monitored with vernier calipers. The mean TV (MTV) was calculated using the formula V=W^2×L/2. When the MTV reached approximately 160 to 180 mm^3, the animals were randomized into 13 treatment groups (n=5/group). […] Tumor growth and body weight were measured twice per week. Percent TGI and body weight change were calculated on Day 35. Treatment started on Day 0 for 28 days. Antitumor activity was determined by calculating the percent TGI using Equation 1: Percent TGI=(mean tumor volume [MTV] of the control group−MTV of a treated group)/MTV of the control group×100.
The differences in the tumor growth trends over time between pairs of treatment groups were assessed using linear mixed effects regression models. These models account for the fact that each animal was measured at multiple time points. A separate model was fit for each comparison, and the area under the curve (AUC) values for each treatment group were calculated using the predicted values from the model. The percent decrease in AUC (ΔAUC) relative to the reference group was then calculated.
Drug combinations were assessed for synergy using observed AUC values. The change in AUC relative to the control was calculated for both single agent treatment groups as well as the combination group. The interaction between the two compounds was then assessed by comparing the change in AUC observed in the combination group to the sum of the changes observed in both single agents. The results can be divided into four categories: synergistic, additive, sub-additive, and antagonistic. Further details regarding combination analyses are provided in the appendix. All p values less than 0.05 were considered significant.

marginal zone B cells = experiment: Marginal zone B cells in mouse spleen (FACS); type: in vivo; details: 60 mg/kg, spleens harvested 2 hrs after the last dose, FIG. 9
Experimental: The effect of the compounds on the localization/viability of marginal zone B cells in the spleen is also evaluated at the conclusion of treatment.
Spleens were harvested 2 hrs after the last dose, processed and stained with appropriate antibodies (marginal zone B cell: B220+;CD23−;CD21hi) and analyzed for staining on GUAVA EasyCyte FACS machine using Guava Cytosoft 5.2 software.

[2] = system: preclinical breast cancer model; experiment: Preclinical breast cancer model, tumor weight / volume; type: in vivo; details: 70 mg/kg Pan-PI3K inhibitor; 60 mg/kg compound A; FIG. 9 left panel
[3] = system: HCT-116 human colorectal cancer xenografts; experiment: Antitumor activity, HCT-116 xenografts (Example 44); type: in vivo, Mus musculus; details: Day 21
Experimental: Compound A was prepared in PEG400 (TCAL, San Diego, Calif., USA) every 7 days and stored at room temperature, shielded from light. The vehicle used in this study was PEG400 (Sigma, St. Louis, Mo., USA).
Low passage (passage number 8) HCT-116 cells (American Type Culture Collection ATCC, Manassas, Va., USA) were grown in McCoy's 5A (ATCC) media with 10% fetal bovine serum (FBS) (PAA Laboratories Pty Ltd, Morningside, Queensland, Australia) and supplied at a concentration of 5.0×10^7 cells/mL. HCT-116 cells (5.0×10^6/animal, 0.1-mL injection volume) were implanted SC into the flank of female athymic nude mice. The animals used in this study are described in the following table.
Female 9 to 10-week-old female Foxn1 nu Hsd:Athymic nude mice were inoculated SC in the flank with 5.0×10^6 HCT-116 cells. Tumor growth was monitored with vernier calipers. The MTV was calculated using the formula V=W^2×L/2. […] Tumor growth and body weight were measured twice per week. Percent TGI and body weight change were calculated on Day 21 while animals were on treatment. […] Antitumor activity was determined by calculating the percent TGI using Equation 1: % tumor growth inhibition (TGI)=(mean tumor volume [MTV] of the control group−MTV of a treated group)/MTV of the control group×100. […]
Drug combinations were assessed for synergy using observed AUC values. […]

[4] = Plasma insulin in nude mice (Example 41); type: in vivo, Mus musculus; details: 120 minutes after the last dose (Day 28)
Experimental: Insulin was measured using Mesoscale Discovery's Mouse/Rat Insulin Kit (Rockville, Md., USA). Plasma samples collected at 120 minutes post last dose were thawed on ice and reagents from the kit were brought to room temperature. 150 μL of Blocker A Solution was added to each well, the plates were covered, and then incubated on a plate shaker (300-1000 rpm) for 1 hour at room temperature. After the first incubation, the wells were washed three times with phosphate buffered saline+Tween 20 (PBS-T), and then 40 μL of 1× Detection Antibody Solution followed by 10 μL of unknown neat samples or standards were added to the wells in duplicate. The plate was then covered and incubated on a plate shaker (300-1000 rpm) for 2 hours at room temperature. Following the second incubation, the wells were washed three times with PBS-T, and then 150 μL of 1× Read Buffer T was added to each well. The plates were immediately analyzed on the SECTOR Imager using the MSD Discovery Workbench software (Meso Scale Discovery). A 4-parameter logisitic model was utilized by the software to determine the concentrations of the unknown samples based on the standard curve it generated.

Nc1nc2cc(-c3ccc4ncc(C(=O)N5CCOCC5)n4c3)ccc2o1 [Compound A]
TGI ([1]; 70 mg/kg QD 3on/4off PO, not significantly different from control): 19.4%
TGI ([1]; 140 mg/kg QD 3on/4off PO): 41.0%
TGI ([1]; 210 mg/kg QW PO, not significantly different from control): 21.0%
TGI ([1]; 420 mg/kg QW PO): 40.8%
localization/viability of marginal zone B cells (marginal zone B cells): does not affect
tumor weight of a breast cancer model [2]: reduction in tumor weight
TGI ([3]; 120 mg/kg PO QD for 21 days): 8.2%
Mean Plasma Insulin at 2 hr. ([4]; 60 mg/kg QD): 0.7 ng/mL
Plasma Insulin Fold Over Control ([4]; 60 mg/kg QD): 1.47 fold
Mean Plasma Insulin at 2 hr. ([4]; 70 mg/kg QD 3on/4off): 1.51 ng/mL
Plasma Insulin Fold Over Control ([4]; 70 mg/kg QD 3on/4off): 3.16 fold
Mean Plasma Insulin at 2 hr. ([4]; 140 mg/kg QD 3on/4off): 2.39 ng/mL
Plasma Insulin Fold Over Control ([4]; 140 mg/kg QD 3on/4off): 5.01 fold
Mean Plasma Insulin at 2 hr. ([4]; 210 mg/kg QW): 3.96 ng/mL
Plasma Insulin Fold Over Control ([4]; 210 mg/kg QW): 8.29 fold

CC(C)n1nc(-c2ccc3oc(N)nc3c2)c2c(N)ncnc21 [Compound B]
TGI ([1]; 0.3 mg/kg QD PO): 36.9%
TGI ([1]; 1.0 mg/kg QD 3on/4off PO): 47.2%
TGI ([1]; 3.0 mg/kg QW PO): 35.8%
TGI ([3]; 0.6 mg/kg PO QD 5on/2off for 21 days, not significantly different from control): 4.5%
Mean Plasma Insulin at 2 hr. ([4]; 0.3 mg/kg QD): 3.74 ng/mL
Mean Plasma Insulin at 2 hr. ([4]; 1.0 mg/kg QD 3on/4off): 2.83 ng/mL
Mean Plasma Insulin at 2 hr. ([4]; 3.0 mg/kg QW): 5.94 ng/mL
